Measured values reported in patent publication US8722681B2, “N-sulfonyl thiazolylpiperazine derivatives and related N-sulfonyl heterocyclic derivatives for the treatment of neuro degenerative diseases” (NV reMYND, priority 2007, dated 2014).

What was measured:
[1] = system: M17-SYNwt cells; test: α-synuclein cytotoxicity assay (LDH leakage from paraquat-treated M17-SYNwt cells); assay type: cell-based, human; conditions: Table 2; for EC50: Homo sapiens, M17-SYNwt cells, paraquat 32 mM, 40 hours, LDH activity; for % inh. (percentage inhibition): inhibition of synuclein toxicity at most effective concentration relative to untreated paraquat cells
Source text: An α-synuclein expression plasmid was constructed by sub-cloning the NcoI/XhoI fragment from 212T-SYN(WT) (Griffioen et al., Biochem Biophys Acta (2006) 1762(3):312-318) containing the cDNA of human wild type α-synuclein correspondingly into a standard mammalian expression vector pcDNA3.1 resulting in plasmid pcDNA3.1-SYNwt. Plasmid pcDNA3.1 and pcDNA3.1-SYNwt were transfected to human neuroblastoma cells (ATCC No. CRL-2267) and independent clonal lines with the plasmids stably integrated into the genome were selected. […] Over-expression of α-synuclein in M17-SYNwt cell lines was confirmed by Western analysis.
(§1) Due to the high levels of α-synuclein M17-SYNwt cells are exquisitely sensitivity to paraquat, a well-known risk factor of synuclein-dependent neuronal degeneration. In degenerated or dead cells lactate dehydrogenase (LDH) is leaked out of the cells into the extracellular environment due to a loss of plasma-membrane integrity. This principle was used to determine cytotoxicity by quantifying the level of leaked LDH into the growth medium.
(§2) The detailed method for determining α-synuclein cytotoxicity was as follows: From appropriate precultures of M17 and M17-SYN cells were seeded at 50000 cells/cm^2 in Optimem Reduced Serum without phenol red (InVitrogen, Cat. 31985-047) supplemented with 5% fetal calf serum, 1 mM sodium pyruvate, 1×non-essential amino acids, 500 μg/ml G418 0.5×antibiotic/antimycotic. After 3 hours of incubation at 37° C./5% CO2 paraquat was added to the cells (final concentration of 32 mM), together with the test compound and the cells were further incubated for 40 hours. Subsequently, LDH activity was determined using Promega Cytotox 96 Non-Radioactive cytotoxicity assay, (Cat. G1780) according the supplier's instructions.
This α-synuclein expressing neuroblastoma cells made it possible to assess the ability of novel compounds to counteract α-synuclein cytotoxicity. […] Since this method monitors leaked LDH from degenerated or dead cells only non-toxic compounds will be identified as active inhibitors of α-synuclein-mediated cytotoxicity. Lack of toxicity is an important characteristic for compounds to be used as a medicament to patients in need. A compound was considered to be active in this test when it inhibits α-synuclein cytotoxicity by more than 25% relative to untreated M17-SYNwt cells at a concentration of 20 μg/mL or lower. In the experiments, the control group consisted of M17-SYNwt cells treated with DMSO, the untreated paraquat group consisted of M17-SYNwt cells treated with paraquat and DMSO, and the treated paraquat group consisted of M17-SYNwt cells treated with paraquat and the test compound dissolved in DMSO.
Percent inhibition was calculated as the synuclein toxicity inhibition by the compound in treated paraquat cells, relative to the synuclein cytotoxicity in untreated paraquat cells.
The compounds from table 1 were screened for activity using the α-synuclein cytotoxicity assay as described above. Dose responses were carried out on all compounds found to be active (10 point curves in duplicate).

[2] = system: M17-SYNwt cells; assay type: cell-based, human; conditions: M17-SYNwt cells treated with paraquat; not seen in M17 cells; FIG. 1
Source text: as §1, §2

Row | Structure (SMILES) | EC50 [1] | % inh. (percentage inhibition) [1] | level of LDH leaked into the medium [2]
1 | COc1ccc(OC)c(S(=O)(=O)N2CCN(c3nc(-c4ccccc4)cs3)CC2)c1 [Compound 36, 1-(2,5-dimethoxyphenylsulfonyl)-4-(4-phenylthiazol-2-yl)piperazine] | 950 nM | 121% | 
2 | COc1ccc(OC)c(S(=O)(=O)N2CCN(c3nc(-c4ccc(Cl)cc4)cs3)CC2)c1 [Compound 37, 1-(4-(4-chlorophenyl)thiazol-2-yl)-4-(2,5-dimethoxyphenylsulfonyl)piperazine] | 1290 nM | 74% | 
3 | COc1ccc(-c2csc(N3CCN(S(=O)(=O)c4ccc(OC)c(OC)c4)CC3)n2)cc1 [Compound 38, 1-(3,4-dimethoxyphenylsulfonyl)-4-(4-(4-methoxyphenyl)thiazol-2-yl)piperazine] | 1060 nM | 65% | 
4 | COc1ccc(-c2csc(N3CCN(S(=O)(=O)c4cc(OC)ccc4OC)CC3)n2)cc1 [Compound 39, 1-(2,5-dimethoxyphenylsulfonyl)-4-(4-(4-methoxyphenyl)thiazol-2-yl)piperazine] | 6750 nM | 107% | 
5 | Cc1ccc(S(=O)(=O)N2CCN(c3nc(-c4ccccc4)cs3)CC2)cc1 [Compound 44, 1-(4-phenylthiazol-2-yl)-4-tosylpiperazine] | 197 nM | 72% | 
6 | COc1ccc(S(=O)(=O)N2CCN(Cc3nc(-c4ccc(F)cc4)cs3)CC2)cc1 [Compound 47, 1-((4-(4-fluorophenyl)thiazol-2-yl)methyl)-4-(4-methoxyphenylsulfonyl)piperazine] | 39.9 nM | 86% | 
7 | COc1ccc(S(=O)(=O)N2CCC(c3nc(-c4ccc(F)cc4)cs3)CC2)cc1 [Compound 48, 4-(4-(4-fluorophenyl)thiazol-2-yl)-1-(4-methoxyphenylsulfonyl)piperidine] | 49.4 nM | 90% | 
8 | COc1ccc(S(=O)(=O)N2CCN(c3nc(-c4ccncc4)cs3)CC2)cc1 [Compound 49, 1-(4-methoxyphenylsulfonyl)-4-(4-(pyridin-4-yl)thiazol-2-yl)piperazine] | 75 nM | 114% | 
9 | COc1ccc(F)cc1S(=O)(=O)N1CCN(c2nc(-c3ccc(C)cc3)cs2)CC1 [Compound 50, 1-(5-fluoro-2-methoxyphenylsulfonyl)-4-(4-(4-methylphenyl)thiazol-2-yl)piperazine] | 1770 nM | 104% | 
10 | COc1cc(F)ccc1S(=O)(=O)N1CCN(c2nc(-c3ccc(C)cc3)cs2)CC1 [Compound 51, 1-(4-fluoro-2-methoxyphenylsulfonyl)-4-(4-(4-methylphenyl)thiazol-2-yl)piperazine] | 2500 nM | 88% | 
11 | O=S(=O)(c1cccnc1)N1CCN(c2nc(-c3ccc(F)cc3)cs2)CC1 [Compound 54, 1-(4-(4-fluorophenyl)thiazol-2-yl)-4-(pyridin-3-ylsulfonyl)piperazine] | 1230 nM | 91% | 
12 | Cc1n[nH]c(C)c1S(=O)(=O)N1CCN(c2nc(-c3ccc(F)cc3)cs2)CC1 [Compound 55, 1-(4-(4-fluorophenyl)thiazol-2-yl)-4-(3,5-dimethyl-1H-pyrazol-4-ylsulfonyl)piperazine] | 657 nM | 91% | 
13 | O=S(=O)(c1ccc(Cl)s1)N1CCN(c2nc(-c3ccccc3)cs2)CC1 [Compound 56, 1-(5-chlorothiophen-2-ylsulfonyl)-4-(4-phenylthiazol-2-yl)piperazine] | 752 nM | 98% | 
14 | COc1ccc(-c2csc(N3CCN(S(=O)(=O)c4cccs4)CC3)n2)cc1 [Compound 57, 1-(thiophen-2-ylsulfonyl)-4-(4-(4-methoxyphenyl)thiazol-2-yl)piperazine] | 721 nM | 88% | 
15 | O=S(=O)(c1cccs1)N1CCN(c2nc(-c3ccc(Cl)cc3)cs2)CC1 [Compound 58, 1-(thiophen-2-ylsulfonyl)-4-(4-(4-chlorophenyl)thiazol-2-yl)piperazine] | 3750 nM | 99% | 
16 | O=[N+]([O-])c1ccc(-c2csc(N3CCN(S(=O)(=O)c4cccs4)CC3)n2)cc1 [Compound 60, 1-(thiophen-2-ylsulfonyl)-4-(4-(4-nitrophenyl)thiazol-2-yl)piperazine] | 1240 nM | 79% | 
17 | O=S(=O)(N1CCCC1)N1CCN(c2nc(-c3ccccc3)cs2)CC1 [Compound 61, 1-(4-phenylthiazol-2-yl)-4-(pyrrolidin-1-ylsulfonyl)piperazine] | 1740 nM | 127% | 
18 | Cc1ccc(-c2csc(N3CCN(S(=O)(=O)N4CCCC4)CC3)n2)cc1 [Compound 62, 1-(4-(4-methylphenyl)thiazol-2-yl)-4-(pyrrolidin-1-ylsulfonyl)piperazine] | 1930 nM | 112% | 
19 | COc1ccc(-c2csc(N3CCN(S(=O)(=O)N4CCCC4)CC3)n2)cc1 [Compound 63, 1-(4-(4-methoxyphenyl)thiazol-2-yl)-4-(pyrrolidin-1-ylsulfonyl)piperazine] | 3180 nM | 69% | 
20 | O=S(=O)(c1ccc2c(c1)OCCO2)N1CCN(c2nc(-c3ccccc3)cs2)CC1 [Compound 69, 1-(2,3-dihydrobenzo[b][1,4]dioxin-6-ylsulfonyl)-4-(4-phenylthiazol-2-yl)piperazine] | 434 nM | 89% | 
21 | COc1ccc(-c2csc(N3CCN(S(=O)(=O)c4ccc5c(c4)OCCO5)CC3)n2)cc1 [Compound 70, 1-(2,3-dihydrobenzo[b][1,4]dioxin-6-ylsulfonyl)-4-(4-(4-methoxyphenyl)thiazol-2-yl)piperazine] | 1960 nM | 83% | 
22 | O=[N+]([O-])c1ccc(-c2csc(N3CCN(S(=O)(=O)c4ccc5c(c4)OCCO5)CC3)n2)cc1 [Compound 71, 1-(2,3-dihydrobenzo[b][1,4]dioxin-6-ylsulfonyl)-4-(4-(4-nitrophenyl)thiazol-2-yl)piperazine] | 1440 nM | 77% | 
23 | O=[N+]([O-])c1cccc(-c2csc(N3CCN(S(=O)(=O)c4ccc5c(c4)OCCO5)CC3)n2)c1 [Compound 72, 1-(2,3-dihydrobenzo[b][1,4]dioxin-6-ylsulfonyl)-4-(4-(3-nitrophenyl)thiazol-2-yl)piperazine] | 23500 nM | 85% | 
24 | O=S(=O)(c1cccc2nonc12)N1CCN(c2nc(-c3ccc(F)cc3)cs2)CC1 [Compound 74, 4-(4-(4-(4-fluorophenyl)thiazol-2-yl)piperazin-1-ylsulfonyl)benzo[c][1,2,5]oxadiazole] | 233 nM | 41% | 
25 | O=S(=O)(c1ccc2ccccc2c1)N1CCN(c2nc(-c3ccc(Cl)cc3)cs2)CC1 [Compound 75, 1-(4-(4-chlorophenyl)thiazol-2-yl)-4-(naphthalen-2-ylsulfonyl)piperazine] | 870 nM | 84% | 
26 | COc1ccccc1-c1csc(N2CCN(S(=O)(=O)c3cccc4c3ccn4C)CC2)n1 [Compound 77, 4-(4-(4-(2-methoxyphenyl)thiazol-2-yl)piperazin-1-ylsulfonyl)-1-methyl-1H-indole] | 257 nM | 69% | 
27 | Cc1ccc(S(=O)(=O)N2CCN(c3nc(-c4cccs4)cs3)CC2)cc1 [Compound 78, 1-(4-(thiophen-2-yl)thiazol-2-yl)-4-tosylpiperazine] | 316 nM | 84% | 
28 | C[n+]1ccc(-c2cc[n+](C)cc2)cc1 [paraquat] |  |  | relatively high level
